Results as given in PubChem BioAssay AID2060909 (Molecular Pharmacology Branch, DTP, NCI, 2025).
“And” between values parts separate entries of the source, which are not always exact repeats. Equal values may be shown once. One block for each molecule: values may come before it.

System: 362531-283-R-J2-PDC complex spheroid viability
Assay: Anticancer human tumor 362531-283-R-J2-PDC patient-derived colon adenocarcinoma cell line growth inhibition [RAS]
Conditions: for viability, T/C: stronger effect = lower value
From the text: RAS pathway inhibitors in Combinations in Complex Spheroids
A high-throughput screen of multi-cell type tumor spheroids was designed to identify active combinations of RAS pathway inhibitors and targeted small molecules. Complex spheroids include a stromal component modeled by human endothelial cells (HUVEC) and fibroblasts modeled by human mesenchymal stem cells (MSCs). The concentration ranges selected for each drug and investigational agent were based upon clinically achievable concentrations if the clinical Cmax of the agent was known.
Compounds. The drugs and investigational agents: abemaciclib (NSC768073), cobimetinib (NSC768068), divarasib (GDC6063, NSC841802), docetaxel (NSC628503), GDC-1971 (RLY-1971, NSC841576), gemcitabine (NSC613327), inavolisib (NSC800729), ipatasertib (NSC767898), KB-0742 (NSC834161), MRTX-1133 (NSC836407), osimertinib (NSC779217), RMC-4630 (NSC839698), RMC-6236 (NSC851965), RMC-6291 (NSC852671), Ro-3306 (NSC812927), sapanisertib (NSC764658), SN-38 (NSC673596), staurosporine (NSC755774), SY5609 (NSC837396), and tovorafenib (DAY101, NSC766906), were obtained from the National Cancer Institute (NCI) Developmental Therapeutics Program Chemical Repository. The FDA-approved anticancer drug set is available from the NCI Developmental Therapeutics Program. […] The stock solutions were prepared in dimethyl sulfoxide (DMSO, Sigma-Aldrich, St. Louis, MO, cat. D2650) at 800-fold the tested concentration and stored at -70 degrees C prior to their use. All drugs and investigational agents were tested over a range starting from a high concentration at or near the clinical Cmax and decreasing in half-log increments. If the clinical Cmax for an agent had not been determined, the highest concentration tested was 10 microM.
Cell Culture. All cells were maintained in an incubator at 37 degrees C and 5% CO2 with 95% humidity. The PDC lines were cultured according to standard operating procedures established by the NCI PDMR. All PDCs were thawed and cultured in Matrigel-coated flasks prepared with a working solution of 1X Ham's F-12 nutrient mix, without supplementation (Invitrogen, Waltham, MA, cat. 11765054), 100 U/mL penicillin-streptomycin (Invitrogen, cat. 15140122), and 2.5% Matrigel (Corning Inc., Corning, NY, cat. 354248) for the first three passages. The 362531-283-R-J2-PDC and 782815-120-R-J1-PDC lines were cultured in 6C/Colon 1B media, which includes advanced DMEM/F-12 (Thermo Fisher Scientific, cat. 12634028), 10 mM HEPES (Thermo Fisher Scientific, cat. 15630080), 1X GlutaMAX supplement (Thermo Fisher Scientific, cat. 35050061), 0.1 mg/mL primocin (InvivoGen, San Diego, CA, cat. ant-pm-2), 10% defined fetal bovine serum, heat inactivated (HyClone Laboratories Inc., Logan, UT, cat. SH30070.03HI), 50% L-WRN conditioned media (ATCC, cat. CRL-3276), 1.25 mM N-Acetyl-L-cysteine (Sigma-Aldrich, cat. A9165), 10 mM nicotinamide (Sigma-Aldrich, cat. N0636), 1X B-27 supplement (Thermo Fisher Scientific, cat. 17504044), 1X N-2 supplement (Thermo Fisher Scientific, cat. 17502048), 50 ng/mL human EGF (Thermo Fisher Scientific, cat. PHG0311), and 10 microM Y-27632 dihydrochloride (Tocris Bioscience, cat. 1254). The K12877-001-R-J1-PDC line was cultured in 6I media, which includes all 6C/Colon 1B media plus 10 ng/mL human FGF-10 (PeproTech, cat. 100-26), 1 ng/mL human FGF-2 (PeproTech, cat. 100-18B), 1 µM prostaglandin E2 (Tocris Bioscience, cat. 2296), […] hydrocortisone (Sigma-Aldrich, cat. H4001), and […] bovine insulin (Sigma-Aldrich, cat. I6634). The K86415-001-R-J1-PDC line was cultured in 6D media, which includes all 6C/Colon 1B media components minus the L-WRN conditioned media. The 485176-168-R4-J1-PDC was cultured in PANC media, which includes all 6C/Colon 1B media plus 100 ng/mL human FGF-10 (PeproTech, cat. 100-26), 500 nM SB-431542 (Selleckchem, cat. S1067), and 10 nM gastrin (Tocris Bioscience, cat. 3006). […]

[1] = curve of first compound, second compound 0.0316 µM
[2] = curve of first compound, second compound 0.1 µM
[3] = curve of first compound, second compound 0.316 µM
[4] = curve of first compound, second compound 1 µM
[5] = second compound 0.0316 µM, first compound 0.0316 µM
[6] = second compound 0.0316 µM, first compound 0.1 µM
[7] = second compound 0.0316 µM, first compound 0.316 µM
[8] = second compound 0.0316 µM, first compound 1 µM
[9] = second compound 0.1 µM, first compound 0.0316 µM
[10] = second compound 0.1 µM, first compound 0.1 µM
[11] = second compound 0.1 µM, first compound 0.316 µM
[12] = second compound 0.1 µM, first compound 1 µM
[13] = second compound 0.316 µM, first compound 0.0316 µM
[14] = second compound 0.316 µM, first compound 0.1 µM
[15] = second compound 0.316 µM, first compound 0.316 µM
[16] = second compound 0.316 µM, first compound 1 µM
[17] = second compound 1 µM, first compound 0.0316 µM
[18] = second compound 1 µM, first compound 0.1 µM
[19] = second compound 1 µM, first compound 0.316 µM
[20] = second compound 1 µM, first compound 1 µM
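Further: spheroids exposed to the agents for 7 days before readout.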
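Wherever viability, T/C is given: luminescence viability as percent of DMSO vehicle control wells.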

IC50 [1]: 526 nM
IC50 [2]: 472 nM
IC50 [3]: 158 nM
IC50 [4]: 110 nM
IC50 (curve of first compound, second compound 3.16 µM): 48.9 nM
IC50 (curve of first compound, second compound 10 µM): 5.45 nM
Compound: C=CC(=O)Nc1cc(Nc2nccc(-c3cn(C)c4ccccc34)n2)c(OC)cc1N(C)CCN(C)C + C#Cc1c(F)ccc2cc(O)cc(-c3ncc4c(N5CC6CCC(C5)N6)nc(OCC56CCCN5CC(F)C6)nc4c3F)c12
viability, T/C (second compound 0.0316 µM, first compound 0.00316 µM): 96.8%
viability, T/C (second compound 0.0316 µM, first compound 0.01 µM): 96.6%
viability, T/C [5]: 97.7%
viability, T/C [6]: 89.7%
viability, T/C [7]: 78.1%
viability, T/C [8]: 15.8%
viability, T/C (second compound 0.1 µM, first compound 0.00316 µM): 93%
viability, T/C (second compound 0.1 µM, first compound 0.01 µM): 96.6%
viability, T/C [9]: 91.6%
viability, T/C [10]: 84.8%
viability, T/C [11]: 71.3%
viability, T/C [12]: 12.4%
viability, T/C (second compound 0.316 µM, first compound 0.00316 µM): 95.9%
viability, T/C (second compound 0.316 µM, first compound 0.01 µM): 94.4%
viability, T/C [13]: 84.1%
viability, T/C [14]: 69.8%
viability, T/C [15]: 20.8%
viability, T/C [16]: 14.4%
viability, T/C (second compound 1 µM, first compound 0.00316 µM): 80.9%
viability, T/C (second compound 1 µM, first compound 0.01 µM): 78.3%
viability, T/C [17]: 73%
viability, T/C [18]: 53.7%
viability, T/C [19]: 19.9%
viability, T/C [20]: 14.4%
viability, T/C (second compound 3.16 µM, first compound 0.00316 µM): 63.5%
viability, T/C (second compound 3.16 µM, first compound 0.01 µM): 66.4%
viability, T/C (second compound 3.16 µM, first compound 0.0316 µM): 55.7%
viability, T/C (second compound 3.16 µM, first compound 0.1 µM): 38.7%
viability, T/C (second compound 3.16 µM, first compound 0.316 µM): 16.2%
viability, T/C (second compound 3.16 µM, first compound 1 µM): 13.8%
viability, T/C (second compound 10 µM, first compound 0.00316 µM): 57.3%
viability, T/C (second compound 10 µM, first compound 0.01 µM): 41.4%
viability, T/C (second compound 10 µM, first compound 0.0316 µM): 32.5%
viability, T/C (second compound 10 µM, first compound 0.1 µM): 22.5%
viability, T/C (second compound 10 µM, first compound 0.316 µM): 17.1%
viability, T/C (second compound 10 µM, first compound 1 µM): 13.4%

IC50 (curve of first compound, second compound 0.00316 µM): 549 nM
IC50 (curve of first compound, second compound 0.01 µM): 928 nM
IC50 [1]: 666 nM
IC50 [2]: 810 nM
IC50 [3]: 839 nM
IC50 [4]: 808 nM
Compound: CC(Nc1ccc2c(c1)OCCn1cc(N3C(=O)OCC3C(F)F)nc1-2)C(N)=O (stereo not given) + C=CC(=O)N1CCN(c2nc(OCC3CCCN3C)nc3c(F)c(-c4nc(N)cc(C)c4C(F)(F)F)c(Cl)cc23)C(C)C1
viability, T/C (second compound 0.00316 µM, first compound 0.0316 µM): 96.6%
viability, T/C (second compound 0.00316 µM, first compound 0.1 µM): 78.6%
viability, T/C (second compound 0.00316 µM, first compound 0.316 µM): 54.5%
viability, T/C (second compound 0.00316 µM, first compound 1 µM): 46.1%
viability, T/C (second compound 0.00316 µM, first compound 3.16 µM): 39.1%
viability, T/C (second compound 0.00316 µM, first compound 10 µM): 42.7%
viability, T/C (second compound 0.01 µM, first compound 0.0316 µM): 97.4%
viability, T/C (second compound 0.01 µM, first compound 0.1 µM): 86.2%
viability, T/C (second compound 0.01 µM, first compound 0.316 µM): 70.2%
viability, T/C (second compound 0.01 µM, first compound 1 µM): 46.8%
viability, T/C (second compound 0.01 µM, first compound 3.16 µM): 38.3%
viability, T/C (second compound 0.01 µM, first compound 10 µM): 30.3%
viability, T/C [5]: 87.4%
viability, T/C [6]: 84.4%
viability, T/C [7]: 63.7%
viability, T/C [8]: 43.5%
viability, T/C (second compound 0.0316 µM, first compound 3.16 µM): 33.3%
viability, T/C (second compound 0.0316 µM, first compound 10 µM): 43.4%
viability, T/C [9]: 95.9%
viability, T/C [10]: 92.5%
viability, T/C [11]: 71.7%
viability, T/C [12]: 44.2%
viability, T/C (second compound 0.1 µM, first compound 3.16 µM): 35.4%
viability, T/C (second compound 0.1 µM, first compound 10 µM): 27.4%
viability, T/C [13]: 107%
viability, T/C [14]: 88%
viability, T/C [15]: 68.8%
viability, T/C [16]: 47.9%
viability, T/C (second compound 0.316 µM, first compound 3.16 µM): 31.9%
viability, T/C (second compound 0.316 µM, first compound 10 µM): 35.8%
viability, T/C [17]: 94.8%
viability, T/C [18]: 95.6%
viability, T/C [19]: 72%
viability, T/C [20]: 46.6%
viability, T/C (second compound 1 µM, first compound 3.16 µM): 31.8%
viability, T/C (second compound 1 µM, first compound 10 µM): 35%

IC50 (compound alone, run of 07/15/2024): 6730 nM and > 10000 nM and 9190 nM
Compound: C#Cc1c(F)ccc2cc(O)cc(-c3ncc4c(N5CC6CCC(C5)N6)nc(OCC56CCCN5CC(F)C6)nc4c3F)c12 (stereo not given)
viability, T/C (compound 0.0316 µM): 99.9% [middle of 8 runs]
viability, T/C (compound 0.1 µM): 101% [middle of 8 runs]
viability, T/C (compound 0.316 µM): 94.8% [middle of 8 runs]
viability, T/C (compound 1 µM): 79.1% [middle of 8 runs]
viability, T/C (compound 10 µM): 54.6% [middle of 8 runs]
